Measured values as given in US20260295053A1, “COMPOUNDS FOR DEGRADATION AND INHIBITION OF KRAS (G12D) PROTEIN” (Shenzhen Ionova Life Science Co., Ltd., priority 2023, published 2026).

What was measured:
[1] = target: T1, KRAS (G12D) (Homo sapiens, UniProt P01116, G12D); experiment: KRAS (G12D) cellular degradation assay in AsPC-1 cells; assay type: cell-based; details: 24 hours, antibody fluorescence (Odyssey CLX), DC50 half-maximal degradation concentration
T1 construct: in-cell western with KRAS G12D antibody after 24 h
T1 sequence (P01116 1-188 isoform P01116-2 G12D): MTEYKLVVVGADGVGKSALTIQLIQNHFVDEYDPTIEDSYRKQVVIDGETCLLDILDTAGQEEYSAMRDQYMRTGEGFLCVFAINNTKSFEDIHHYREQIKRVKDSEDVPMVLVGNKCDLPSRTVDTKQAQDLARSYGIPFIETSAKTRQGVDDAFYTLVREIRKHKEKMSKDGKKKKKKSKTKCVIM
In short: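 Half-maximal degradation (DC50) and inhibition (IC50) concentrations are fitted from dose-response curves spanning […] to 1.5 nM final. KRAS G12D loss is measured by fluorescent antibody staining with β-actin reference after 24 h; growth is measured by ATP luminescence after a 6-day exposure.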

[2] = tested on: AsPC-1 cells; experiment: AsPC-1 cell proliferation assay (CellTiter Glo); assay type: cell-based; details: 6 days
Procedure: ASPC-1 and PK-59 cellular assays ASPC-1 (ATCC cat. CRL-1682) and PK-59 (Nanjing Cobioer, Cat. No. CBP61184) were used in KRAS cellular degradation, pERK inhibition and proliferation assays. The two cell lines were maintained following vendor's instructions. For monitoring KRAS (G12D) cellular degradation and pERK biomarker inhibition, cells were seeded into a 96-well plate with 22,000 and 16,000 cells/well for assays in ASPC-1 and PK-59, respectively. Cells were incubated at 37° C. with 5% CO2 and cell density was monitored until ^~90% confluency was reached. Compounds were serially diluted at a 1:3 ratio and dispensed into each well at final concentrations ranging from […] to 1.5 nM. After incubation for 24 hours, the culture media were removed and the cells were subjected to fixation, permeabilization and blocking (Intercept blocking buffer, Li-cor). For KRAS (G12D) degradation, the cells were treated with primary antibody (KRAS G12D antibody, Cell Signaling Technologies, Cat. No. CST14429) and for β-actin (β-actin mAb, Beyotime, Cat. No. AF-5001), and followed by secondary antibodies, Anti-rabbit IgG (H+L) (DyLight™ 800 4×PEG Conjugate) or IRDye® 680RD Goat anti-Mouse IgG. For pERK inhibition assay, cells were treated with primary antibodies for pERK (Phospho-p44/42 MAPK (Erk1/2) (Thr202/Tyr204) (D13.14.4E) XP® Rabbit mAb, Cell Signaling Technologies, Cat. No. CST-4370) and β-actin (β-actin mAb, Beyotime, Cat. No. AF-5001), and followed by secondary antibodies, Anti-rabbit IgG (H+L) (DyLight™ 800 4×PEG Conjugate) or IRDye® 680RD Goat anti-Mouse IgG. Fluorescence signals were read on Odyssey CLX instrument. For cell proliferation assays, cells were seeded into a 96-well plate at 3,500 and 800 cells/well for assays in ASPC-1 and PK-59, respectively. Cells were incubated at 37° C. with 5% CO2 for overnight. Compounds were serially diluted at a 1:3 ratio and dispensed into each well at final concentrations ranging from […] to 1.5 nM. After incubation for 6 days, cell viability reagent (CellTiter Glo, Promega, Cat. No. G7573) was added to each well and luminescence was recorded on Molecular Devices Spectramax iD3 instrument. IC50, half-maximal inhibitory concentration for pERK inhibition or cell proliferation, and DC50, half-maximal degradation concentration in KRAS (G12D) cellular degradation were determined by fitting the corresponding dose response curves using GraphPad Prism software.
Wherein “A” means the value <10 nM, “B” means 10 nM<the value <100 nM, “C” means 100 nM<the value <1000 nM, and “D” means the value >1000 nM, in which, the value means the value of DC50 or IC50. NT means not tested.

CCn1nccc1-c1ccc([C@H](CO)NC(=O)[C@@H]2C[C@@H](O)CN2C(=O)[C@H](C(C)C)n2cc(-c3ccc(COc4c(-c5c(C)c(F)cc6[nH]ncc56)c(C5CC5)cc5c(N6C[C@H]7C[C@@H]6CN7)nc(OC[C@H](C)OC)nc45)cc3)nn2)cc1 (single isomer, unassigned) [Example 1A]
DC50 [1]: < 10 nM
IC50 [2]: < 10 nM

CCn1nccc1-c1ccc([C@H](CO)NC(=O)[C@@H]2C[C@@H](O)CN2C(=O)[C@H](C(C)C)n2cc(-c3ccc(COc4c(-c5c(C)c(F)cc6[nH]ncc56)c(C5CC5)cc5c(N6C[C@H]7C[C@@H]6CN7)nc(OC[C@H](C)OC)nc45)cc3)nn2)cc1 (single isomer, unassigned) [Example 1B]
DC50 [1]: > 1000 nM
IC50 [2]: > 1000 nM

CO[C@@H](C)COc1nc(N2C[C@H]3C[C@@H]2CN3)c2cc(C3CC3)c(-c3c(C)c(F)cc4[nH]ncc34)c(OCc3ccc(-c4cn([C@H](C(=O)N5C[C@H](O)C[C@H]5C(=O)N[C@@H](CO)c5ccc(-c6scnc6C)cc5)C(C)C)nn4)cc3)c2n1 (single isomer, unassigned) [Example 2A]
DC50 [1]: < 10 nM
IC50 [2]: < 10 nM

CO[C@@H](C)COc1nc(N2C[C@H]3C[C@@H]2CN3)c2cc(C3CC3)c(-c3c(C)c(F)cc4[nH]ncc34)c(OCc3ccc(-c4cn([C@H](C(=O)N5C[C@H](O)C[C@H]5C(=O)N[C@@H](CO)c5ccc(-c6scnc6C)cc5)C(C)C)nn4)cc3)c2n1 (single isomer, unassigned) [Example 2B]
DC50 [1]: > 1000 nM
IC50 [2]: > 1000 nM

CO[C@@H](C)COc1nc(N2C[C@H]3C[C@@H]2CN3)c2cc(C3CC3)c(-c3c(C)c(F)cc4[nH]ncc34)c(OCc3ccc(-c4cn([C@H](C(=O)N5C[C@H](O)C[C@H]5C(=O)N[C@@H](C)c5ccc(-c6scnc6C)cc5)C(C)C)nn4)cc3)c2n1 (single isomer, unassigned) [Example 3A]
DC50 [1]: < 10 nM
IC50 [2]: 10 to 100 nM

CO[C@@H](C)COc1nc(N2C[C@H]3C[C@@H]2CN3)c2cc(C3CC3)c(-c3c(C)c(F)cc4[nH]ncc34)c(OCc3ccc(-c4cn([C@H](C(=O)N5C[C@H](O)C[C@H]5C(=O)N[C@@H](C)c5ccc(-c6scnc6C)cc5)C(C)C)nn4)cc3)c2n1 (single isomer, unassigned) [Example 3B]
DC50 [1]: > 1000 nM
IC50 [2]: > 1000 nM

CCn1nccc1-c1ccc([C@H](C)NC(=O)[C@@H]2C[C@@H](O)CN2C(=O)[C@H](C(C)C)n2cc(-c3ccc(COc4c(-c5c(C)c(F)cc6[nH]ncc56)c(C5CC5)cc5c(N6C[C@H]7C[C@@H]6CN7)nc(OC[C@H](C)OC)nc45)cc3)nn2)cc1 (single isomer, unassigned) [Example 4A]
DC50 [1]: < 10 nM
IC50 [2]: 10 to 100 nM

CCn1nccc1-c1ccc([C@H](C)NC(=O)[C@@H]2C[C@@H](O)CN2C(=O)[C@H](C(C)C)n2cc(-c3ccc(COc4c(-c5c(C)c(F)cc6[nH]ncc56)c(C5CC5)cc5c(N6C[C@H]7C[C@@H]6CN7)nc(OC[C@H](C)OC)nc45)cc3)nn2)cc1 (single isomer, unassigned) [Example 4B]
DC50 [1]: > 1000 nM
IC50 [2]: > 1000 nM

CO[C@@H](C)COc1nc(N2C[C@H]3C[C@@H]2CN3)c2cc(C3CC3)c(-c3c(C)c(F)cc4n[nH]cc34)c(OCc3ccc(-c4cn([C@H](C(=O)N5C[C@H](O)C[C@H]5C(=O)N[C@@H](CO)c5ccc(-c6c(C)noc6C)cc5)C(C)C)nn4)cc3)c2n1 (single isomer, unassigned) [Example 6A]
DC50 [1]: 10 to 100 nM
IC50 ([2]; Homo sapiens, ASPC1, 144 h): 10 to 100 nM

CCn1nccc1-c1ccc(CNC(=O)[C@@H]2C[C@@H](O)CN2C(=O)[C@H](C(C)C)n2cc(-c3ccc(COc4c(-c5c(C)c(F)cc6[nH]ncc56)c(C5CC5)cc5c(N6C[C@H]7C[C@@H]6CN7)nc(OC[C@H](C)OC)nc45)cc3)nn2)cc1 (single isomer, unassigned) [Example 7A]
DC50 [1]: 10 to 100 nM
IC50 ([2]; Homo sapiens, ASPC1, 144 h): 10 to 100 nM

CCn1nccc1-c1ccc([C@H](CO)NC(=O)[C@@H]2C[C@@H](O)CN2C(=O)[C@H](C(C)C)n2cc(-c3ccc(COc4c(-c5c(C)c(F)cc6[nH]ncc56)c(C5CC5)cc5c(N6CC7CCC(C6)N7)nc(OC[C@H](C)OC)nc45)cc3)nn2)cc1 (single isomer, unassigned) [Example 8]
DC50 [1]: 10 to 100 nM
IC50 [2]: 10 to 100 nM

CCn1nccc1-c1ccc([C@H](CO)NC(=O)[C@@H]2C[C@@H](O)CN2C(=O)[C@H](C(C)C)n2cc(-c3ccc(COc4c(-c5c(C)c(F)cc6[nH]ncc56)c(C5CC5)cc5c(N6CC7CCC(C6)N7)nc(OC[C@H](C)OC)nc45)cc3)nn2)cc1 (single isomer, unassigned) [Example 9]
DC50 [1]: 10 to 100 nM
IC50 [2]: > 1000 nM

CO[C@@H](C)COc1nc(N2C[C@H]3C[C@@H]2CN3)c2cc(C3CC3)c(-c3c(C)c(F)cc4[nH]ncc34)c(OCc3ccc(-c4cn([C@H](C(=O)N5C[C@H](O)C[C@H]5C(=O)NCc5ccc(-c6scnc6C)cc5)C(C)C)nn4)cc3)c2n1 (single isomer, unassigned) [Example 11A]
DC50 [1]: 10 to 100 nM
IC50 ([2]; Homo sapiens, ASPC1, 144 h): 10 to 100 nM

CO[C@@H](C)COc1nc(N2CC3CCC(C2)N3)c2cc(C3CC3)c(-c3c(C)c(F)cc4[nH]ncc34)c(OCc3ccc(-c4cn([C@H](C(=O)N5C[C@H](O)C[C@H]5C(=O)N[C@@H](CO)c5ccc(-c6scnc6C)cc5)C(C)C)nn4)cc3)c2n1 (single isomer, unassigned) [Example 12A]
DC50 [1]: 10 to 100 nM
IC50 ([2]; Homo sapiens, ASPC1, 144 h): 10 to 100 nM

CCn1nccc1-c1ccc([C@H](CO)NC(=O)[C@@H]2C[C@@H](O)CN2C(=O)[C@H](C(C)C)n2cc(-c3ccc(COc4c(-c5c(C)c(F)cc6[nH]ncc56)c(C5CC5)cc5c(N6CC7CCC(C6)N7)nc(OC[C@H](C)OC)nc45)cc3)nn2)cc1 (single isomer, unassigned) [Example 13A]
DC50 [1]: 10 to 100 nM
IC50 ([2]; Homo sapiens, ASPC1, 144 h): 10 to 100 nM

CCn1nccc1-c1ccc([C@H](CO)NC(=O)[C@@H]2C[C@@H](O)CN2C(=O)[C@H](C(C)C)n2cc(-c3ccc(COc4c(-c5c(C)c(F)cc6[nH]ncc56)c(C5CC5)cc5c(N6C[C@H]7C[C@@H]6CN7)nc(OC6CCOCC6)nc45)cc3)nn2)cc1 (stereo in doubt) [Example 10, (2S,4R)-1-((2S)-2-(4-(4-(((4-((1R,4R)-2,5-diazabicyclo[2.2.1]heptan-2-yl)-6-cyclopropyl-7-(6-fluoro-5-methyl-1H-indazol-4-yl)-2-((tetrahydro-2H-pyran-4-yl)oxy)quinazolin-8-yl)oxy)methyl)phenyl)-1H-1,2,3-triazol-1-yl)-3-methylbutanoyl)-N—((R)-1-(4-(1-ethyl-1H-pyrazol-5-yl)phenyl)-2-hydroxyethyl)-4-hydroxypyrrolidine-2-carboxamide]
DC50 [1]: 10 to 100 nM
IC50 ([2]; Homo sapiens, ASPC1, 144 h): 10 to 100 nM

CCn1nccc1C#CC(CO)NC(=O)[C@@H]1C[C@@H](O)CN1C(=O)[C@H](C(C)C)n1cc(-c2ccc(COc3c(-c4c(C)c(F)cc5[nH]ncc45)c(C4CC4)cc4c(N5C[C@@H]6C[C@H]5CN6)nc(OC[C@H](C)OC)nc34)cc2)nn1 (stereo in doubt) [Example 34, (2S,4R)-1-((2S)-2-(4-(4-(((4-((1S,4S)-2,5-diazabicyclo[2.2.1]heptan-2-yl)-6-cyclopropyl-7-(6-fluoro-5-methyl-1H-indazol-4-yl)-2-((S)-2-methoxypropoxy)quinazolin-8-yl)oxy)methyl)phenyl)-1H-1,2,3-triazol-1-yl)-3-methylbutanoyl)-N—((R)-4-(1-ethyl-1H-pyrazol-5-yl)-1-hydroxybut-3-yn-2-yl)-4-hydroxypyrrolidine-2-carboxamide]
DC50 [1]: < 10 nM
IC50 ([2]; Homo sapiens, ASPC1, 144 h): < 10 nM
